# From publication PMC7836013, “Characterization of Formononetin Sulfonation in SULT1A3 Overexpressing HKE293 Cells: Involvement of Multidrug Resistance-Associated Protein 4 in Excretion of Sulfate” (Frontiers in Pharmacology, 2021)
# Where a name gives a salt, the structure may show the parent alone.
# Key:
# HEK-SULT1A3 cell lysate [1] = target: T1, HEK-SULT1A3 cell lysate (Homo sapiens, UniProt P0DMM9); assay: Effect of chemical inhibitors on formononetin sulfonation in HEK-SULT1A3 cell lysate; format: in vitro ADME; conditions: inhibitor 5–20 μM, formononetin 2.5 and 10 μM, p > 0.05
# T1 construct: expressed in transfected cells; cell lysate used
# MRP4 [2] = target: T2, MRP4 (Homo sapiens, UniProt O15439); assay: Effect of MK-571 on formononetin sulfate excretion in HEK-SULT1A3 cells; format: cell-based
# T2 construct: MRP4 was the only expressed MRPs family transporter in HEK-SULT1A3 cells; endogenous in cells; host or cells: HEK-SULT1A3 cells (HEK293 stably expressing SULT1A3)
# T2 sequence (O15439 1-1325): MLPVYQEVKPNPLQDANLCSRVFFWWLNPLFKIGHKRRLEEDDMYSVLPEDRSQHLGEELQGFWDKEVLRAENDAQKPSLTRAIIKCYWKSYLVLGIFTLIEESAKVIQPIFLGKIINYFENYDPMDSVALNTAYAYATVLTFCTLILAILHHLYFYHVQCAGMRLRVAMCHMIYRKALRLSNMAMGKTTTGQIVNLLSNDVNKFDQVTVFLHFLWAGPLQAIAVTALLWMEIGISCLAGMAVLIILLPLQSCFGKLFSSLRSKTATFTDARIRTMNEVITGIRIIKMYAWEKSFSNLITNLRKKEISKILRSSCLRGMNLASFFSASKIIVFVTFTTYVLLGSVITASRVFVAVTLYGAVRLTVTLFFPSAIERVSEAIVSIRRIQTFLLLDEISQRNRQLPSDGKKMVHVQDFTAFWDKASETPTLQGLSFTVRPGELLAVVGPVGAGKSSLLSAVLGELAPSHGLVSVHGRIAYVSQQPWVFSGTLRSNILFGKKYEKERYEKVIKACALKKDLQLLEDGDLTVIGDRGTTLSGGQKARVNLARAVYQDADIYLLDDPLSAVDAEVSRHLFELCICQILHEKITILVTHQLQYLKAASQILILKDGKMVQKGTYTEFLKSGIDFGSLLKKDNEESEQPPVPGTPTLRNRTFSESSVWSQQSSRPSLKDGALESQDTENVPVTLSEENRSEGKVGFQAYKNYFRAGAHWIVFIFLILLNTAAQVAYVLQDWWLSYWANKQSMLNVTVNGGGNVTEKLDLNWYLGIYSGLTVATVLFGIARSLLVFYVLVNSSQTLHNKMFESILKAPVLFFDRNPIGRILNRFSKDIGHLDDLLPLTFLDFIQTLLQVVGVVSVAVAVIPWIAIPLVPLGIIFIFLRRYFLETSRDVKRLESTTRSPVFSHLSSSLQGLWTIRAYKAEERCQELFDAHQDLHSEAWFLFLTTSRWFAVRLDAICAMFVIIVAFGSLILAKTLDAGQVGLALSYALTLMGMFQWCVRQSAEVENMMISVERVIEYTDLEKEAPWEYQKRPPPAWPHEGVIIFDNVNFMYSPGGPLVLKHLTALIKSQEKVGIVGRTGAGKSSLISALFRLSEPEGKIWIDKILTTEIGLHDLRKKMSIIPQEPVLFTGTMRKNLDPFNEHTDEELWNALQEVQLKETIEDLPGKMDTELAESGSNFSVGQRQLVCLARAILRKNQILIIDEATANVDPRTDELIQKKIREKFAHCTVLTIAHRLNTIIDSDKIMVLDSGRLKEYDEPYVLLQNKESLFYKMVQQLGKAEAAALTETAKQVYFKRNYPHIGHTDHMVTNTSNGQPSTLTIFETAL
# Protocol: (§1) The sulfate excretion experiments were conducted using HEK-SULT1A3 cells model. In brief, HEK-SULT1A3 cells were washed with Hank's Balanced Salt Solution (HBSS) buffer (37°C, pH = 7.2) for three times. Then the cells were incubated with 2 ml HBSS buffer containing different concentrations of formononetin (final concentrations of 2.5 μM or 10 μM) at 37°C. 200 μL of incubation medium was sampled from each well at various times (0.5, 1.0, 1.5, and 2.0 h). Meanwhile, 200 μL of dosing solution was added immediately. The extracted samples were mixed with 100 μL ice-cold acetonitrile and vortexed for 1 min. The supernatant after centrifugation (15,000 g; 15 min) was injected into HPLC for analysis. After the last samples were taken, cells were collected into 400 μL ice-cold MeOH:H2O (1:1, v/v) and processed to measure the intracellular amount of formononetin sulfate. The excretion rate (ER) of intracellular sulfate was calculated exactly as described in our publications (Liu et al., 2018). The apparent efflux clearance (CLef,app) was derived as the excretion rate divided by the intracellular concentration of sulfate (Ci). Ci was determined by dividing intracellular amount of sulfate at 2 h by intracellular volume. The intracellular volume of HEK293 cells was measured using sulfanilamide as described ([Zhou et al., 2015]).
# MRP4 [3] = target: T2, MRP4; assay: Effect of shRNA-mediated MRP4 knockdown on formononetin disposition in HEK-SULT1A3 cells; format: cell-based; conditions: shMRP4 vs scramble, formononetin 2.5 and 10 μM
# Protocol: as §1, with “2015]). […] Further, the fraction of dose metabolized (fmet), an indicator of the extent of drug sulfonation, was calculated according to Eq. 2. fmet=excreted sulfate+intracellular sulfate/total dosed aglycone (2) The cells were collected and lysed in RIPA Lysis Buffer (Beyotime, Shanghai) in advance. After quantified using BCA protein assay kit (Thermo Scientific, Waltham, Massachusetts), the cells samples or individual human intestine S9 fractions were analyzed by sodium dodecyl sulfate polyacrylamide gel electrophoresis (10% acrylamide gels) and transferred to polyvinylidene fluoride membranes ([…], Millipore, Bedford, MA). […] And then the protein bands were scanned in grayscale and subjected to semiquantitative analysis using Quantity One software.” for “2015]).”
# HEK-SULT1A3 cell lysate [4] = target: T1, HEK-SULT1A3 cell lysate; assay: Formononetin sulfonation enzyme kinetics in HEK-SULT1A3 cell lysate; format: in vitro ADME; conditions: Michaelis-Menten, mean ± SD (n = 3)
# Protocol: Enzyme kinetic of formononetin incubated with recombinant human SULT1A3 enzyme (rSULT1A3) was evaluated. The reaction was activated after the coenzyme PAPS (which provides sulfonate group to the substrates) was added. The incubation reaction was conducted in 200 μL potassium phosphate buffer (50 mM, pH 7.4) at 37°C, containing SULT1A3 enzyme (0.1 mg/ml), formononetin (0.16–40 μM), and PAPS (a final concentration of 0.10 mM). After incubation for 120 min, the reaction was terminated by adding 100 μL ice-cold acetonitrile. Then the samples were vortexed and centrifuged at 15,000 g for 15 min. The supernatant was analyzed by HPLC for sulfate quantification. All incubations were performed in triplicate. Preliminary experiments were performed to ensure that the rates of sulfation were determined under linear conditions with respect to incubation time and protein concentration.
# The sulfonation rates of formononetin at different concentrations were determined according to the sulfonation assay protocol. […] The intrinsic clearance (CLint) was calculated by Vmax/Km.
# Quantification of formononetin sulfate was performed using Agilent 1,260 Infinity II HPLC system with a ZORBAX SB-C18 column (4.6 × 250 mm, 5 μm; Agilent). […] The samples were analyzed using a gradient of ammonium acetate (2.5 mM) in water (mobile phase A) vs. acetonitrile (mobile phase B) at a flow rate of 1.0 ml/min. […]
# [5] = parameters: method as in Singh and Wahajuddin, 2011; conditions: ref Singh and Wahajuddin, 2011; cited from earlier work
# [6] = MK-571 5–20 μM, formononetin 2.5 μM, p < 0.001
# [7] = MK-571 5–20 μM, formononetin 10 μM, p < 0.001
# T1 sequence (P0DMM9 whole entry): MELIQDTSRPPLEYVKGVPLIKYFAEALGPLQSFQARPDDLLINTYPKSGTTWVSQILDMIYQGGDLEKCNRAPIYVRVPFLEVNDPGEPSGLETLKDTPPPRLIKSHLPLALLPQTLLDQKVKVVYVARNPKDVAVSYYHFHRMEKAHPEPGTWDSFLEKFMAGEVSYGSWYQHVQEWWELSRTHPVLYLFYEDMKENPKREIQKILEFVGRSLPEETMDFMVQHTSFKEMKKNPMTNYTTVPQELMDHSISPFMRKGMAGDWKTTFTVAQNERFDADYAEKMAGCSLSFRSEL
smiles,measurement,setting,value
CN(C)C(=O)CCSC(SCCC(=O)O)c1cccc(/C=C/c2ccc3ccc(Cl)cc3n2)c1 (stereo not drawn) [MK-571],Effect of inhibitor on formononetin sulfonation (generation of F-O-S),HEK-SULT1A3 cell lysate [1],did not alter
same,"Decrease of CLef,app of F-O-S",MRP4 [2]; [6],85.3%–98.0%
same,Reduction in excretion of F-O-S,MRP4 [2]; [6],79.1%–94.6%
same,Decrease of excretion rates of F-O-S,MRP4 [2]; [7],79.8%–95.7%
same,Increase of intracellular level of F-O-S,MRP4 [2]; [7],160.6%–188.8%
same,"Reduction of CLef,app of F-O-S",MRP4 [2]; [7],87.3%–97.7%
same,Suppression of excretion of formononetin sulfate,MRP4 [2]; MK-571 at 20 μM,> 94%
"COc1ccc(-c2coc3cc(OS(=O)(=O)O)ccc3c2=O)cc1 [F-O-S, formononetin sulfate]","Decrease in CLef,app of F-O-S on MRP4 knockdown",MRP4 [3]; p < 0.01,> 50.6%
same,Reduction in sulfate excretion rates on MRP4 knockdown,MRP4 [3]; p < 0.01,> 32.8%
same,Elevation in intracellular amounts of F-O-S on MRP4 knockdown,MRP4 [3]; p < 0.05,> 127.4%
"COc1ccc(-c2coc3cc(O)ccc3c2=O)cc1 [formononetin, Formononetin]",Vmax of formononetin sulfonation,HEK-SULT1A3 cell lysate [4],13.94 ± 0.83 pmol/min/mg
same,Bioavailability of unchanged formononetin,[5],approximately 3%
